The target of assay [1] is Cannabinoid receptor 1 (Homo sapiens, UniProt P21554).
Assay [2] deals with Cannabinoid receptor 2 (Homo sapiens, UniProt P34972).
Sequence of Cannabinoid receptor 2 (P34972 whole entry): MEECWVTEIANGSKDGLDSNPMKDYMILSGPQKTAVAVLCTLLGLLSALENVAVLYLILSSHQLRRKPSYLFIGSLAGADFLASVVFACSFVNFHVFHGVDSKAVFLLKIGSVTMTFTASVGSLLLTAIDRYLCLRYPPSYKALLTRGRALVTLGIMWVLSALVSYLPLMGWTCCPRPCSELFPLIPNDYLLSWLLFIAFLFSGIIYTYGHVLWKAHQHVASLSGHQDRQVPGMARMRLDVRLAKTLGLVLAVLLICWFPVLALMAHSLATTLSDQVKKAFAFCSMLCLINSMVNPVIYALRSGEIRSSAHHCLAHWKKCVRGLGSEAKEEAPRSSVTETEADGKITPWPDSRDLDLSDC

Sequence of Cannabinoid receptor 1 (P21554 whole entry): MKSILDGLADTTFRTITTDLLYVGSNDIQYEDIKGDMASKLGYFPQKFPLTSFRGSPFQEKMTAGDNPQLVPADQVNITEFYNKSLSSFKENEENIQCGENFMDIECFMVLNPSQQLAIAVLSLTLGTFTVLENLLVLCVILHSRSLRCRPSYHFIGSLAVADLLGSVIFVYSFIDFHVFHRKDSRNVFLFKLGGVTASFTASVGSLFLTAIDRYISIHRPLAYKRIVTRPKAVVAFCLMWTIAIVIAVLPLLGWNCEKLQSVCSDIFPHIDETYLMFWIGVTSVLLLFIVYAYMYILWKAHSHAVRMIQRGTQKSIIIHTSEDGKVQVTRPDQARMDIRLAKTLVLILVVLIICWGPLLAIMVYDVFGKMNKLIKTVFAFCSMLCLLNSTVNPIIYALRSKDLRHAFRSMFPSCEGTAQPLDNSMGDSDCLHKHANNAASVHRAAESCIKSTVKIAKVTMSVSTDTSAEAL

Consider `CCCCCCC(C)(C)c1cc(O)c2c(c1)OC(C)(C)[C@@H]1CC=C(CO)CC21` (stereo partly drawn) [(R)-3-(1,1-Dimethyl-heptyl)-9-hydroxymethyl-6,6-dimethyl-6a,7,10,10a-tetrahydro-6H-benzo[c]chromen-1-ol], for which the affinity in assay [1] corresponds to a Ki of 0.41 nM.
On to `O=S(=O)(CCCC(F)(F)F)Oc1cccc(Oc2ccc(O)c3c2CC(CO)=C3)c1` [KN 38-7271], for which, in assay [2], the Ki was found to be 5.96 nM.
